The source of these data is US9809626B2, “Antibacterial agents: salinamide derivatives” (priority 2012, dated 2017).

In data set [1] the test system is Gram-positive bacterial pathogens. To be noted: reported previously (Trischman et al. 1994; Moore et al. 1999); cited from earlier work.
In data set [2] the test system is Haemophilus influenzae ATCC49247. The data set is described as follows: Antibacterial activity, broth microdilution. Format: cell-based. The source says: (§1) Antibacterial activity was quantified using broth microdilution [Clinical and Laboratory Standards Institute (CLSI/NCCLS), Methods for Dilution Antimicrobial Susceptibility Tests for Bacteria That Grow Aerobically; Approved Standard, Eighth Edition. CLIS Document M07-A8 (CLIS, Wayne Pa.), 2009]. Assays with Enterobacter cloacae ATCC13047, Pseudomonas aeruginosa ATCC10145, and Escherichia coli D21f2to1C, employed a starting cell density of 2-5×10^5 cfu/ml, Mueller Hinton II cation adjusted broth (BD Biosciences, Inc.), and an air atmosphere. Assays with Haemophilus influenzae ATCC49247 and Neisseria gonorrhoeae ATCC19424 employed a starting cell density of 2-5×10^5 cfu/ml, Haemophilus Test Medium broth (Barry et al., 1993) and a 5% CO2/95% air atmosphere. MIC50 was defined as the minimal concentration resulting in ≧50% inhibition of bacterial growth.
Background: Broth dilution looks for growth in wells or tubes with falling amounts of substance.

Data set [3] deals with Pseudomonas aeruginosa ATCC10145. The data set is described as follows: Antibacterial activity, broth microdilution. Format: cell-based.
Text: as §1

Data set [4] has as its system Neisseria gonorrhoeae ATCC19424. The data set can be described thus: Antibacterial activity, broth microdilution. Type of data set: cell-based.
Text: as §1

Data set [5] has as its system Escherichia coli D21f2tolC. The data set can be described thus: Antibacterial activity, broth microdilution. Type of data set: cell-based. As to conditions: for MIC50: Escherichia coli, D21F2TOLC, read-out: MIC50 Escherichia coli D21f2tolC.
Text: as §1

Data set [6] concerns Enterobacter cloacae ATCC13047. The data set is described as follows: Antibacterial activity, broth microdilution. Type of data set: cell-based. To be noted: for MIC50: Enterobacter cloacae, ATCC13047, minimal concentration resulting in ≧50% inhibition of bacterial growth, read-out: MIC50 Enterobacter cloacae ATCC 13047.
Text: as §1

For data set [7], the target named is Escherichia coli RNAP σ70 holoenzyme (Escherichia coli, UniProt P0A8T7+P0A8V2). The data set can be described thus: Fluorescence-detected RNAP assay, Escherichia coli RNAP. Type of data set: biochemical. The method, then: Fluorescence-detected RNAP assays with Escherichia coli RNAP were performed by a modification of the procedure of Kuhlman et al., Anal. Biochem. 324:183-190, 2004]. Reaction mixtures contained (20 μl): 0-100 nM test compound, 75 nM Escherichia coli RNAP σ^70 holoenzyme, 20 nM 384 bp DNA fragment containing the bacteriophage T4 N25 promoter, 100 μM ATP, 100 μM GTP, 100 μM UTP, 100 μM CTP, 50 mM Tris-HCl, pH 8.0, 100 mM KCl, 10 mM MgCl2, 1 mM DTT, 10 μg/ml bovine serum albumin, and 5.5% glycerol. Reaction components other than DNA and NTPs were pre-incubated for 10 min at 37° C. Reactions were carried out by addition of DNA and incubation for 5 min at 37° C., followed by addition of NTPs and incubation for 60 min at 37° C. DNA was removed by addition of 1 μl 5 mM CaCl2 and 2 U DNasel (Ambion, Inc.), followed by incubation for 90 min at 37° C. RNA was quantified by addition of 100 μl RiboGreen RNA Quantitation Reagent (Invitrogen, Inc.; 1:500 dilution in Tris-HCl, pH 8.0, 1 mM EDTA), followed by incubation for 10 min at 25° C., followed by measurement of fluorescence intensity [excitation wavelength=485 nm and emission wavelength=535 nm; QuantaMaster QM1 spectrofluorometer (PTI, Inc.)].
(§2) Half-maximal inhibitory concentrations (IC50s) were calculated by non-linear regression in SigmaPlot (SPSS, Inc.).

For data set [8], the system named is Gram-positive and Gram-negative bacterial RNAP. The data set can be described thus: Inhibition of bacterial RNAP in vitro (statement). Type of data set: biochemical. To be noted: disclosed herein.
For data set [9], the system named is human RNAP I, II, and III. The data set can be described thus: Radiochemical assay with human RNAP I, II, and III (HeLaScribe Nuclear Extract). Format: biochemical. As to the method:
Radiochemical assays with human RNAP I, II, and III were performed essentially as described [Sawadogo and Roeder, Cell 43:165-75, 1985]. Reaction mixtures contained (20 μl): 0-100 μM test compound, 8 U HeLaScribe Nuclear Extract (Promega, Inc.), 1 μg human placental DNA (Sigma-Aldrich), 400 μM ATP, 400 μM [α^32P]UTP (0.11 Bq/fmol), 400 μM CTP, 400 μM GTP, 50 mM Tris-HCl, pH 8.0, 7 mM HEPES-NaOH, 70 mM (NH4)2SO4, 50 mM KCl, 12 mM MgCl2, 5 mM DTT, 0.1 mM EDTA, 0.08 mM phenylmethylsulfonyl fluoride, and 16% glycerol. Reaction components other than DNA and NTPs were pre-incubated 10 min at 30° C., DNA was added and reaction mixtures were incubated 15 min at 30° C., NTPs were added and reaction mixtures were incubated 60 min at 30° C. Reaction mixtures were spotted on DE81 filter discs (Whatman, Inc.; pre-wetted with water) and incubated 1 min at room temperature. Filters were washed with 3×3 ml Na2HPO4, 2×3 ml water, and 3 ml ethanol, using a filter manifold (Hoefer, Inc.). Filters were placed in scintillation vials containing 10 ml Scintiverse BD Cocktail (Thermo Fisher, Inc.), and radioactivity was quantified by scintillation counting (LS6500; Beckman-Coulter, Inc.).
as §2

In data set [10] the test system is Vero E6 cells (ATCC CRL1586). The data set can be described thus: Cytotoxicity to mammalian cells in culture (CellTiter96 assay). Format: cell-based. As to conditions: for MIC50 Vero E6 ATCC CRL1586: Table 3. The source says:
MICs for mammalian cells (Vero E6) in culture were quantified using CellTiter96 assay (Promega. Inc.; procedures as specified by the manufacturer).

The target of data set [11] is T1, Escherichia coli RNAP holoenzyme (Escherichia coli, UniProt P0A8T7+P0A8V2).
T1 construct: made in house
The data set can be described thus: Radiochemical RNAP assay, Escherichia coli RNAP. Format: biochemical. As to the method:
(§3) Radiochemical RNAP assays with Escherichia coli RNAP and Staphylococcus aureus RNAP were performed as follows: Reaction mixtures contained (10 μl): 0-100 μM test compound, bacterial RNAP holoenzyme [75 nM Escherichia coli RNAP holoenzyme (prepared as in Mukhopadhyay et al., Meths. Enzymol. 371:144-159, 2003) or 75 nM Staphylococcus aureus RNAP core enzyme and 300 nM Staphylococcus aureus σ^A (prepared as in Srivastava et al., Curr. Opin. Microbiol. 14:532-543, 2011)], 20 nM DNA fragment N25-lacUV5-14 [positions −100 to −1 of the bacteriophage T5 N25 promoter followed by positions +1 to +29 of the lacUV5(+10A; +15C) promoter; prepared by PCR amplification of a synthetic nontemplate-strand oligodeoxyribonucleotide], 0.5 mM ApA, 100 μM □[α^32P]UTP (0.2 Bq/fmol), 100 μM ATP, and 100 μM GTP in TB (50 mM Tris-HCl, pH 7.9, 100 mM KCl, 10 mM MgCl2, 1 mM DTT, 100 μg/ml bovine serum albumin, and 5% glycerol). […] Products were applied to 7 M urea 15% polyacrylamide (19:1 acrylamide:bisacrylamide) slab gels (Bio-Rad), electrophoresed in TBE (90 mM Tris-borate, pH 8.0, and 2 mM EDTA), and analyzed by storage-phosphor scanning (Typhoon; GE Healthcare, Inc.).
as §2

The target in data set [12] is T2, Staphylococcus aureus RNAP (Staphylococcus aureus, UniProt P47768+Q2G0N5).
T2 construct: made in house
The data set is described as follows: Radiochemical RNAP assay, Staphylococcus aureus RNAP. Format: biochemical. As to the method:
as §3, §2

The mark [13] stands for this setting: Gram-negative bacterial pathogen.
Setting [14] is: read-out: IC50 human RNAP I/II/III.

Structures are written as SMILES. Values after ≈ are worked out from the molar mass of the structure shown. Like-named read-outs stand apart in the source and are kept apart here. Numbered stars: 1 amine (or outer) side, 2 acyl side, 3 side chain; on linkers, the order of the positions; unused ones are H or OH. Bridge positions count the residues as written; N and C are the ends. Square brackets hold non-standard residues; d marks the D form. Peptide text beside a SMILES is read from it. * marks the point of attachment. X2 = C[C@@H](Oc1ccc([C@H](N[*:1])C(=O)[*:2])cc1)[C@](O)(/C=C/C(=O)[*:3])CBr; X3 = C[C@@H](Oc1ccc([C@H](N[*:1])C(=O)[*:2])cc1)C(O)(/C=C/C(=O)[*:3])CCl; Pentanoyl(2R-Me,3R-OH,4-Me) = CC(C)[C@@H](O)[C@@H](C)C(=O)*; d(aIle) = CC[C@H](C)[C@@H](N)C(=O)O; d(aThr) = C[C@@H](O)[C@@H](N)C(=O)O; NMeF = CN[C@@H](Cc1ccccc1)C(=O)O A value given as a limit tells only on which side of the number the result lay.

Sequence of Escherichia coli RNAP σ70 holoenzyme (P0A8T7 whole entry, the tested form may be a part): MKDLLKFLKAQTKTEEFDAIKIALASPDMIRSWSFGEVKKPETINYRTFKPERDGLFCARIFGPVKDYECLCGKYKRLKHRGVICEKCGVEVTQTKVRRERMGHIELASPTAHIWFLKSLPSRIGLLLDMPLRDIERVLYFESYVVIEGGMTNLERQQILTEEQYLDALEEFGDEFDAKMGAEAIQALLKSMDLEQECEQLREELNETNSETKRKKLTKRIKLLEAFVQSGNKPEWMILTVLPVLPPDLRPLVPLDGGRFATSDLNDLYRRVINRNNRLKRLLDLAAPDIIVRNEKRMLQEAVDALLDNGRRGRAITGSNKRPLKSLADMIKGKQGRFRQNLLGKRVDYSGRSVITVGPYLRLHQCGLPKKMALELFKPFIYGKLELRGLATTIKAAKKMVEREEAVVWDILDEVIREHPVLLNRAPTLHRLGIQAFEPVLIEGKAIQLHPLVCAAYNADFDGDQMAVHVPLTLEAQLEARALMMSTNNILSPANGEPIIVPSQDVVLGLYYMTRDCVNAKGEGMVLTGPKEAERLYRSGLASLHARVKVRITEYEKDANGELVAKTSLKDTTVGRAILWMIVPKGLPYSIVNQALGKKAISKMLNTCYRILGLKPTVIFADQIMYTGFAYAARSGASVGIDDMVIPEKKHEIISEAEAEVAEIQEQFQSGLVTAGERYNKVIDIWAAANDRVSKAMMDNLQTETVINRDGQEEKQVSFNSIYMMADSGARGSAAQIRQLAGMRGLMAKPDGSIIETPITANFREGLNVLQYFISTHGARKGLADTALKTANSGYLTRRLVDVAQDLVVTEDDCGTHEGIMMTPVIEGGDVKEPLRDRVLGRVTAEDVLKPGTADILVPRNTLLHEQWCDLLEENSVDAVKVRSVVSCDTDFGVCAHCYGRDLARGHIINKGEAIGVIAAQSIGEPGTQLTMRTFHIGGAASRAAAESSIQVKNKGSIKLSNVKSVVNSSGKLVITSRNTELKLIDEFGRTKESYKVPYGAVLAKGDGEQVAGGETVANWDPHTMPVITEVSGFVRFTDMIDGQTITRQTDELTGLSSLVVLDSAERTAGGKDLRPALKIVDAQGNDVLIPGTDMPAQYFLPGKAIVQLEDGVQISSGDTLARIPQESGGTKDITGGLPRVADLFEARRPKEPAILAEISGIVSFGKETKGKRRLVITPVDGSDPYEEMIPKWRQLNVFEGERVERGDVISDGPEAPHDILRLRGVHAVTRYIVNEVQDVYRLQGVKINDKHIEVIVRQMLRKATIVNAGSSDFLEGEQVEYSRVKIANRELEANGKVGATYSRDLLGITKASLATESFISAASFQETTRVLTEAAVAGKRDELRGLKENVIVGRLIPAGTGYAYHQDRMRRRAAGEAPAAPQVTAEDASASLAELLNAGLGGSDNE
Sequence of Escherichia coli RNAP σ70 holoenzyme (P0A8V2 whole entry, the tested form may be a part): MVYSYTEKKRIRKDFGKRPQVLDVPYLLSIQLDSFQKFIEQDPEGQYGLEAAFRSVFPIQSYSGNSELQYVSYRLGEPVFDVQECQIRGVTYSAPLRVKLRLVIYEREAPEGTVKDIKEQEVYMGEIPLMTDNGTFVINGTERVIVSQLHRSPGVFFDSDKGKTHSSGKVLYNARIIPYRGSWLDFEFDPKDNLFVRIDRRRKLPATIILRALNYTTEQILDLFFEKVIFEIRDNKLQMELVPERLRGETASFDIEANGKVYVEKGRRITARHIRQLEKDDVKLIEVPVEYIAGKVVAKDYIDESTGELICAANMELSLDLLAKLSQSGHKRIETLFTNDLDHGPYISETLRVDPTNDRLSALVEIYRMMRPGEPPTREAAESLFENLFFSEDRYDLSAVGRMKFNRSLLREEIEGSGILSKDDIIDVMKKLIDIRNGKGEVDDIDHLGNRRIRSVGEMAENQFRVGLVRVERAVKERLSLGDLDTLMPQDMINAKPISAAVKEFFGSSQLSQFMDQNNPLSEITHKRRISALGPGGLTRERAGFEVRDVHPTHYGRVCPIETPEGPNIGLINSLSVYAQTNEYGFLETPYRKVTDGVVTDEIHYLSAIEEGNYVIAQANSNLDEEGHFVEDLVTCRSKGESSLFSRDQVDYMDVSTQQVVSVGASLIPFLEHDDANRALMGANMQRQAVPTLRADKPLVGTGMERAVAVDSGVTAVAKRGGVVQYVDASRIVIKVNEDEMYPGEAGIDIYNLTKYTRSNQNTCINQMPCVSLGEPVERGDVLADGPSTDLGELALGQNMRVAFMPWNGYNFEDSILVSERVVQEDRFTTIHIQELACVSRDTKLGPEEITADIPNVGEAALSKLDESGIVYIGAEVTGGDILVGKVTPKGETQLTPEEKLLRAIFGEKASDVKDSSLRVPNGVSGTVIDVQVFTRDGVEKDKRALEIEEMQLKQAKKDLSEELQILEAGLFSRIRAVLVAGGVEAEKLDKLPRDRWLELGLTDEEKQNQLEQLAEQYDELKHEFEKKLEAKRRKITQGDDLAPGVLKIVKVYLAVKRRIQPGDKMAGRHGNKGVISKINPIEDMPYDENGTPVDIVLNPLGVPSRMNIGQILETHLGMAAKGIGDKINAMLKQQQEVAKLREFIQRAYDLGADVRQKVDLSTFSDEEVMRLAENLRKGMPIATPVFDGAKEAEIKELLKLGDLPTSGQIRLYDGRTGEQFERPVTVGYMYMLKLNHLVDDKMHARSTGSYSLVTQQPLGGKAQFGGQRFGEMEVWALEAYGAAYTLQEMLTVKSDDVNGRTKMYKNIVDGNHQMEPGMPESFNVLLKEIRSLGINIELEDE
Sequence of Escherichia coli RNAP σ70 holoenzyme (P0A7Z4 whole entry, further chain, the tested form may be a part): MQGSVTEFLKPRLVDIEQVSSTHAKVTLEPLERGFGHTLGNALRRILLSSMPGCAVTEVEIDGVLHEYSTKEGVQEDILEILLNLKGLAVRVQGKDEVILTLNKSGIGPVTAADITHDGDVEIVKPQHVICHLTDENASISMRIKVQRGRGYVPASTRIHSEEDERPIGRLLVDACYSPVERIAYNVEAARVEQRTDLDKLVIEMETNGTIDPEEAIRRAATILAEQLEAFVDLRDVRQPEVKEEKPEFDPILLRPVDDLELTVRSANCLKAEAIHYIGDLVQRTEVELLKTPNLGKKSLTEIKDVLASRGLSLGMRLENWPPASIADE
Sequence of Escherichia coli RNAP σ70 holoenzyme (P0A800 whole entry, further chain, the tested form may be a part): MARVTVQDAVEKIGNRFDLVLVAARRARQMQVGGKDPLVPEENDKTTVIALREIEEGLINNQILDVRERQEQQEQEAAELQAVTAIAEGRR
Sequence of Escherichia coli RNAP σ70 holoenzyme (P00579 whole entry, further chain, the tested form may be a part): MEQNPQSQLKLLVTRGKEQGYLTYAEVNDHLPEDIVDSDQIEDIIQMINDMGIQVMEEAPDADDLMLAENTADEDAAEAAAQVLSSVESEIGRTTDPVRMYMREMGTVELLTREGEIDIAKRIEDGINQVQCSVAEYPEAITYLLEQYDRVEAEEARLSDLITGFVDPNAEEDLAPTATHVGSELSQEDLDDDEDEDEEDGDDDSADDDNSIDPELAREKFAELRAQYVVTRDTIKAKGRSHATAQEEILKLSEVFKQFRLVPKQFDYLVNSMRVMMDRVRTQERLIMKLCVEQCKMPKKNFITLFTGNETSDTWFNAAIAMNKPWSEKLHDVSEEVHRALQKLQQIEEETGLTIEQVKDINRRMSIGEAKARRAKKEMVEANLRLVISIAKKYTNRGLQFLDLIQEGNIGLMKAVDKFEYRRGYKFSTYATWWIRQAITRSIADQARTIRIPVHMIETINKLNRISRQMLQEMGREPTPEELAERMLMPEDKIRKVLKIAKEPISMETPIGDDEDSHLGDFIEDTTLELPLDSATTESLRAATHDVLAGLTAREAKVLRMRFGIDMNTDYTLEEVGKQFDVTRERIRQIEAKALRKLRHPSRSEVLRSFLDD

`CC[C@H](C)[C@H]1NC(=O)[C@@H](NC(=O)[C@H](C)[C@H](O)C(C)C)[C@@H](C)OC(=O)[C@@H]2COC(=O)CNC(=O)/C=C/C(O)(CCl)[C@@H](C)Oc3ccc(cc3)[C@H](NC1=O)C(=O)N(C)[C@@H](Cc1ccccc1)C(=O)N[C@H]([C@@H](C)O)C(=O)N2` (stereo partly drawn) [SalB (2), salinamide B] ({Pentanoyl(2R-Me,3R-OH,4-Me)}-T[d(aIle)][X3][NMeF][d(aThr)]S; ester 1-C; linker 3-6 via G): the “antibacterial activity against Gram-positive bacterial pathogens” value in [1] is “exhibit antibacterial activity”. Moreover, the “antibacterial activity against Haemophilus influenzae” value in data set [2] (setting [13]) is reported as “exhibit antibacterial activity”. The “antibacterial activity against Pseudomonas aeruginosa” value in data set [3] (setting [13]) is recorded as “exhibit antibacterial activity”. The “antibacterial activity against Neisseria gonorrhoeae” value in [4] (setting [13]) is on record as “exhibit antibacterial activity”. For the same compound, the MIC50 in data set [5] was found to be 0.098 µg/mL (≈ 0.0927 µM); in data set [6] it was 6.25 µg/mL (≈ 5.92 µM). Further, the “antibacterial activity against Enterobacter cloacae” value in data set [6] (setting [13]) is on record as “exhibit antibacterial activity”. In addition, the IC50 in [7] (fluorescent-detected RNAP assays) was 1 µM; in data set [9] (setting [14]) it was over 100 µM. Also, the “inhibition of Gram-positive and Gram-negative bacterial RNAP in vitro” value in [8] is on record as “inhibits”. In [9], the “inhibition of human RNAP I, II, and III” value is “do not detectably inhibit”. In addition, the “inhibition of growth of mammalian cells in culture” value in data set [10] was “do not detectably inhibit”. In addition, in data set [10], the “MIC50 Vero E6 ATCC CRL1586” value is over 100 µg/mL.

With `CC[C@H](C)[C@H]1NC(=O)[C@@H](NC(=O)[C@H](C)[C@H](O)C(C)C)[C@@H](C)OC(=O)[C@@H]2COC(=O)CNC(=O)/C=C/[C@](O)(CBr)[C@@H](C)Oc3ccc(cc3)[C@H](NC1=O)C(=O)N(C)[C@@H](Cc1ccccc1)C(=O)N[C@H]([C@@H](C)O)C(=O)N2` [Sal-Br (3), Sal-Br] ({Pentanoyl(2R-Me,3R-OH,4-Me)}-T[d(aIle)][X2][NMeF][d(aThr)]S; ester 1-C; linker 3-6 via G), the MIC50 stood at 6.25 µg/mL (≈ 5.68 µM) in data set [2] (Haemophilus influenzae, ATCC49247, minimal concentration resulting in ≧50% inhibition of bacterial growth); 50 µg/mL (≈ 45.4 µM) in data set [3] (Pseudomonas aeruginosa, ATCC10145, minimal concentration resulting in ≧50% inhibition of bacterial growth); 1.56 µg/mL (≈ 1.42 µM) in data set [4] (Neisseria gonorrhoeae, ATCC19424, minimal concentration resulting in ≧50% inhibition of bacterial growth); 0.049 µg/mL (≈ 0.0445 µM) in data set [5]; 1.56 µg/mL (≈ 1.42 µM) in data set [6]. Further, in [5] (refers to Table 2 (E. coli D21f2tolC and Enterobacter cloacae)), the “antibacterial activity” value was “essentially full”. Also, the “RNAP-inhibitory activity” value in data set [7] (refers to Table 1) is given as “essentially full”. Moreover, the IC50 is 0.78 ± 0.05 µM in [11]; 0.54 ± 0.04 µM in data set [12]; over 100 µM in [9] (radiochemical assay, read-out: IC50 human RNAP I, II, and III); over 100 µM in data set [9] (setting [14]). Further, the “MIC50 Vero E6 ATCC CRL1586” value in data set [10] was over 100 µg/mL. Moreover, in data set [10] (growth of mammalian cells in culture), the “MIC Vero E6 cells” value is over 50 µg/mL.
